ChEMBL document CHEMBL1130799, “Stability of acetal and non acetal-type analogs of artemisinin in simulated stomach acid” (Bioorg Med Chem Lett, 1998)
In brackets after ≈: the same amount, converted by molar mass. Values belong to the compound of their own block, whether it stands above or below them.

Key:
[1] = Half life was determined; assay type: ADME; conditions: rat
Plasmodium falciparum = assay: In vitro antimalarial activity against Plasmodium falciparum; assay type: functional, organism-based

half-life [1]: 0.716 days
SMILES: C[C@H]1[C@@H](O)O[C@@H]2O[C@@]3(C)CC[C@H]4[C@H](C)CC[C@@H]1[C@@]24OO3 [ARTENIMOL]

SMILES: C[C@H]1[C@@H](CCCCC(=O)O)O[C@@H]2O[C@]3(C)CCC4[C@H](C)CC[C@@H]1[C@]42OO3 (stereo partly specified)
IC50 (Plasmodium falciparum): 1.28 ng/mL (≈ 3.47 nM) | half-life [1]: 15.6 days

SMILES: C[C@@H]1CC[C@H]2[C@@H](C)CO[C@@H]3O[C@]4(C)CCC1[C@]32OO4 (stereo partly specified)
IC50 (Plasmodium falciparum): 0.15 ng/mL (≈ 0.559 nM) | half-life [1]: 8.89 days

SMILES: C[C@H]1[C@@H](Cc2ccccc2)O[C@@H]2O[C@]3(C)CCC4[C@H](C)CC[C@@H]1[C@]42OO3 (stereo partly specified)
IC50 (Plasmodium falciparum): < 0.17 ng/mL | half-life [1]: 11.9 days

SMILES: CCCC[C@H]1O[C@@H]2O[C@]3(C)CC[C@H]4[C@H](C)CC[C@@H]([C@H]1C)[C@@]24OO3
IC50 (Plasmodium falciparum): 1.15 ng/mL (≈ 3.54 nM) | half-life [1]: 6.88 days

SMILES: C[C@H]1[C@@H](CCCC(=O)O)O[C@@H]2O[C@]3(C)CCC4[C@H](C)CC[C@@H]1[C@]42OO3 (stereo partly specified)
IC50 (Plasmodium falciparum): 1.3 ng/mL (≈ 3.67 nM) | half-life [1]: 16.1 days

SMILES: CCO[C@H]1O[C@@H]2OC3(C)CCC4[C@H](C)CC[C@@H]([C@H]1C)[C@]42OO3 (single isomer, unassigned)
IC50 (Plasmodium falciparum): 0.16 ng/mL (≈ 0.512 nM) | half-life [1]: 0.458 days

SMILES: C[C@@H]1CC[C@H]2[C@@H](C)C(=O)O[C@@H]3O[C@@]4(C)CC[C@@H]1[C@]32OO4 [ARTEMISININ]
half-life [1]: 0.979 days

SMILES: C[C@H]1[C@@H](OCc2ccc(C(=O)O)cc2)O[C@@H]2OC3(C)CCC4[C@H](C)CC[C@@H]1[C@]42OO3 (single isomer, unassigned)
IC50 (Plasmodium falciparum): 1.38 ng/mL (≈ 3.3 nM) | half-life [1]: 0.546 days
